Measured values from the supplement of paper PMC9912026.

Test system: HT29
Test: pERK immunofluorescence normalised to no-drug reference (=1); higher = more ERK phosphorylation (less pathway inhibition)
Conditions: drug treatment time 24 h, EGF time 8 h
Description: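 A375 CRISPRa-EGFR (A375_aEGFR2) or HT29 cells were treated with two-drug dose combinations (vemurafenib, LY3009120, cobimetinib) for 24 h, then stimulated with EGF (100 ng/mL) or mock medium for 8 h. pERK (T202/Y204) was measured by immunofluorescence as the cytosolic population average, normalised to an untreated no-drug reference of the block (=1). Averages of 2 technical replicates. A375 in 5% FBS, HT29 in 10% FBS.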

CCCS(=O)(=O)Nc1ccc(F)c(C(=O)c2c[nH]c3ncc(-c4ccc(Cl)cc4)cc23)c1F [Vemurafenib] + O=C(c1ccc(F)c(F)c1Nc1ccc(I)cc1F)N1CC(O)([C@@H]2CCCCN2)C1 [Cobimetinib]
pERK immunofluorescence normalised
Conditions | drug B concentration 0 µM | drug B concentration 0.0001 µM | drug B concentration 0.0003162 µM | drug B concentration 0.001 µM | drug B concentration 0.00316228 µM | drug B concentration 0.01 µM | drug B concentration 0.0316228 µM | drug B concentration 0.1 µM | drug B concentration 0.316228 µM | drug B concentration 1 µM
drug A concentration 0 µM, EGF 0 ng/mL | – | 1.1 | 0.976 | 0.886 | 0.53 | 0.231 | 0.148 | 0.115 | 0.102 | 0.0988
drug A concentration 0 µM, EGF 100 ng/mL | – | 1.01 | 0.982 | 0.979 | 0.936 | 0.829 | 0.673 | 0.483 | 0.218 | 0.117
drug A concentration 0.000316 µM, EGF 0 ng/mL | 1 | 1.07 | 1.06 | 0.85 | 0.482 | 0.233 | 0.136 | 0.102 | 0.0952 | 0.0916
drug A concentration 0.000316 µM, EGF 100 ng/mL | 1.1 | 1.09 | 1.13 | 1.03 | 1.03 | 0.928 | 0.82 | 0.539 | 0.227 | 0.111
drug A concentration 0.001 µM, EGF 0 ng/mL | 1.05 | 1.06 | 1.03 | 0.855 | 0.463 | 0.217 | 0.127 | 0.106 | 0.0917 | 0.0915
drug A concentration 0.001 µM, EGF 100 ng/mL | 1.05 | 1.11 | 1.14 | 1.08 | 1.02 | 0.873 | 0.751 | 0.499 | 0.213 | 0.108
drug A concentration 0.00316 µM, EGF 0 ng/mL | 1.07 | 1.06 | 1.02 | 0.836 | 0.463 | 0.225 | 0.132 | 0.0985 | 0.0922 | 0.0903
drug A concentration 0.00316 µM, EGF 100 ng/mL | 1.05 | 1.13 | 1.17 | 1.04 | 1.03 | 0.887 | 0.769 | 0.496 | 0.213 | 0.106
drug A concentration 0.01 µM, EGF 0 ng/mL | 0.924 | 0.922 | 0.868 | 0.73 | 0.416 | 0.201 | 0.124 | 0.0992 | 0.093 | 0.0898
drug A concentration 0.01 µM, EGF 100 ng/mL | 1.03 | 1.04 | 1.04 | 0.958 | 1 | 0.902 | 0.738 | 0.473 | 0.213 | 0.107
drug A concentration 0.0316 µM, EGF 0 ng/mL | 0.742 | 0.727 | 0.695 | 0.513 | 0.389 | 0.189 | 0.129 | 0.0998 | 0.0935 | 0.095
drug A concentration 0.0316 µM, EGF 100 ng/mL | 0.843 | 0.912 | 0.902 | 0.933 | 0.854 | 0.818 | 0.699 | 0.467 | 0.211 | 0.109
drug A concentration 0.1 µM, EGF 0 ng/mL | 0.43 | 0.429 | 0.451 | 0.339 | 0.213 | 0.148 | 0.124 | 0.109 | 0.101 | 0.1
drug A concentration 0.1 µM, EGF 100 ng/mL | 0.824 | 0.844 | 0.967 | 0.948 | 0.882 | 0.755 | 0.699 | 0.437 | 0.212 | 0.112
drug A concentration 0.316228 µM, EGF 0 ng/mL | 0.261 | 0.305 | 0.273 | 0.251 | 0.166 | 0.133 | 0.115 | 0.104 | 0.101 | 0.0973
drug A concentration 0.316228 µM, EGF 100 ng/mL | 0.765 | 0.827 | 0.843 | 0.882 | 0.815 | 0.767 | 0.626 | 0.458 | 0.206 | 0.109
drug A concentration 1 µM, EGF 0 ng/mL | 0.201 | 0.205 | 0.203 | 0.178 | 0.146 | 0.125 | 0.111 | 0.101 | 0.0945 | 0.0941
drug A concentration 1 µM, EGF 100 ng/mL | 0.754 | 0.764 | 0.815 | 0.808 | 0.746 | 0.713 | 0.606 | 0.363 | 0.177 | 0.104
drug A concentration 3.16 µM, EGF 0 ng/mL | 0.162 | 0.165 | 0.171 | 0.144 | 0.134 | 0.119 | 0.113 | 0.0971 | 0.0922 | 0.0932
drug A concentration 3.16 µM, EGF 100 ng/mL | 0.69 | 0.73 | 0.731 | 0.772 | 0.663 | 0.562 | 0.414 | 0.215 | 0.115 | 0.093
drug A concentration 10 µM, EGF 0 ng/mL | 0.187 | 0.177 | 0.202 | 0.185 | 0.158 | 0.133 | 0.106 | 0.091 | 0.0912 | 0.0919
drug A concentration 10 µM, EGF 100 ng/mL | 0.541 | 0.517 | 0.524 | 0.486 | 0.441 | 0.323 | 0.187 | 0.107 | 0.0914 | 0.09
